Counter-ions that a name gives are not always drawn.

We go through 27 compounds from patent US11479802B2, “Assays for screening activity of modulators of members of the hydroxy steroid (17-beta) dehydrogenase (HSD17B) family” (Regeneron Pharmaceuticals, Inc., priority 2017, dated 2022).

For this experiment, the target named is T1, human HSD17B13 (Homo sapiens, UniProt Q7Z5P4).
T1 sequence (Q7Z5P4 20-300): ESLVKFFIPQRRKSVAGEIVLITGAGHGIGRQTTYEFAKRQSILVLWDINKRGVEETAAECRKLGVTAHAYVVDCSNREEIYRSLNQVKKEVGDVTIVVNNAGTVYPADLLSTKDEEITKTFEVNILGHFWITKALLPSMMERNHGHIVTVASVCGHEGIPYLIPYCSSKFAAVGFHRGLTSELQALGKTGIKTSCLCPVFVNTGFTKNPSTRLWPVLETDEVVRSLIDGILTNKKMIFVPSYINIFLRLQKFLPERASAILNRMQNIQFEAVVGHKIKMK
In words: Substrate screening of steroid and bioactive lipid libraries against purified recombinant HSD17B13 (NADH-linked luciferase assay). It counts as biochemical. The conditions noted are these: for HSD17B13 Enzymatic Activity Relative Light Units: 500 μM NAD+, 100 ng enzyme, 3 hours at 23° C.; for HSD17B13 Enzymatic Activity Percent Estradiol Control: normalized to 50 μM estradiol after subtraction of 5% DMSO. The method, boiled down: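 Substrates (bioactive lipids 5 μM, steroids 50 μM; 5% DMSO) tested with 500 μM NAD+ and 100 ng recombinant human HSD17B13 in 0.2 M Tris-HCl pH 7.5, 3 h, 23° C. Luminescent NADH detection followed 1 h later; RLU normalized to estradiol (50 μM, 100%) and DMSO (0%) controls.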

[1] abbreviates: Bioactive Lipid Library, 5 μM bioactive lipid (Estradiol Control 50 μM).
Setting [2] is: Bioactive Lipid Library, 5 μM bioactive lipid.

Regarding `O=P(O)(O)OC1[C@@H](OP(=O)(O)O)[C@H](OP(=O)(O)O)C(O)[C@H](OP(=O)(O)O)[C@H]1OP(=O)(O)O` (stereo partly drawn) [D-myo-Inositol-1,2,4,5,6-pentaphosphate (sodium salt)], under setting [1], the “HSD17B13 Enzymatic Activity Relative Light Units” value is 398080 RLU. In addition, the “HSD17B13 Enzymatic Activity Percent Estradiol Control” value under setting [2] came out at 5.52%.
For `O=P(O)(O)O[C@@H]1C(O)[C@@H](OP(=O)(O)O)[C@@H](OP(=O)(O)O)C(O)[C@H]1OP(=O)(O)O` (stereo partly drawn) [D-myo-Inositol-1,2,4,5-tetraphosphate (sodium salt)], in that order: 403880 RLU and 5.95%.
As to `O=P(O)(O)OC1[C@H](O)[C@H](OP(=O)(O)O)C(OP(=O)(O)O)[C@H](OP(=O)(O)O)[C@H]1O` (stereo partly drawn) [D-myo-Inositol-1,3,4,5-tetraphosphate (sodium salt)], the “HSD17B13 Enzymatic Activity Relative Light Units” value under setting [1] is listed as 358920 RLU. Moreover, the “HSD17B13 Enzymatic Activity Percent Estradiol Control” value under setting [2] turned out to be 2.56%.
`O=P(O)(O)O[C@@H]1C(O)[C@H](OP(=O)(O)O)[C@@H](O)C(O)[C@H]1O` (stereo partly drawn) [D-myo-Inositol-1,3-diphosphate (sodium salt)]: the “HSD17B13 Enzymatic Activity Relative Light Units” value under setting [1] came out at 487280 RLU. In addition, the “HSD17B13 Enzymatic Activity Percent Estradiol Control” value under setting [2] is given as 12.25%.
For `O=P(O)(O)O[C@@H]1[C@H](O)[C@H](O)[C@@H](OP(=O)(O)O)[C@H](OP(=O)(O)O)[C@H]1O` [D-myo-Inositol-1,4,5-triphosphate (potassium salt)], in that order: 358400 RLU and 2.52%.
For `O=P(O)(O)OC1[C@@H](O)[C@@H](O)C(OP(=O)(O)O)[C@H](O)[C@H]1O` (stereo partly drawn) [D-myo-Inositol-1,4-diphosphate (sodium salt)], in that order: 439280 RLU and 8.63%.
For the compound `O=P([O-])(O)O[C@@H]1C(O)[C@H](OP(=O)([O-])O)[C@H](O)C(O)[C@H]1O.[Na+].[Na+]` (stereo partly drawn) [D-myo-Inositol-1,5-diphosphate (sodium salt)], under setting [1], the “HSD17B13 Enzymatic Activity Relative Light Units” value came to 443840 RLU. Under setting [2], the “HSD17B13 Enzymatic Activity Percent Estradiol Control” value stood at 8.97%.
As for `O=P(O)(O)O[C@@H]1[C@@H](OP(=O)(O)O)[C@@H](OP(=O)(O)O)[C@@H](O)[C@H](O)[C@H]1OP(=O)(O)O` [D-myo-Inositol-2,3,4,5-tetraphosphate (ammonium salt)], the “HSD17B13 Enzymatic Activity Relative Light Units” value under setting [1] was found to be 372320 RLU. Also, the “HSD17B13 Enzymatic Activity Percent Estradiol Control” value under setting [2] was found to be 3.57%.
For `O=P(O)(O)O[C@@H]1C(O)[C@@H](OP(=O)(O)O)[C@@H](O)C(O)[C@H]1O` (stereo partly drawn) [D-myo-Inositol-2,4-diphosphate (sodium salt)], in that order: 306720 RLU and −1.38%.
In the same order, the values of `O=P(O)(O)OC1[C@@H](OP(=O)(O)O)[C@H](O)C(O)[C@@H](O)[C@H]1OP(=O)(O)O` (stereo partly drawn) [D-myo-Inositol-3,4,5-triphosphate (sodium salt)] are 400520 RLU and 5.70%.
For `O=P([O-])(O)O[C@@H]1[C@@H](O)[C@H](O)[C@H](O)[C@H](O)[C@H]1OP(=O)([O-])O.[Na+].[Na+]` [D-myo-Inositol-4,5-diphosphate (sodium salt)], in that order: 281680 RLU and −3.27%.
As to `O=P(O)(O)OC1[C@@H](O)[C@@H](O)C(O)[C@H](O)[C@H]1O` (stereo partly drawn) [D-myo-Inositol-4-phosphate (ammonium salt)], under setting [1], the “HSD17B13 Enzymatic Activity Relative Light Units” value was determined as 408880 RLU. For the same compound, the “HSD17B13 Enzymatic Activity Percent Estradiol Control” value under setting [2] is on record as 6.33%.
In the case of `C[C@]12CC[C@H](O)CC1=CC[C@@H]1[C@@H]2CC[C@]2(C)C(=O)CC[C@@H]12` [Dehydroepiandrosterone], under “Steroid Library, 50 μM steroid”, the “HSD17B13 Enzymatic Activity Relative Light Units” value is 196240 RLU and the “HSD17B13 Enzymatic Activity Percent Estradiol Control” value turned out to be 0.62%.
For `CCC(=O)O[C@H]1CC[C@H]2[C@@H]3CC[C@H]4CC(=O)[C@H](C)C[C@]4(C)[C@H]3CC[C@]12C` [Dromostanolone proprionate], in that order: 212040 RLU and 0.90%.
For `C[C@]12CC[C@H](O)C[C@@H]1CC[C@@H]1[C@@H]2CC[C@]2(C)C(=O)CC[C@@H]12` [Epiandrosterone], in that order: 185800 RLU and 0.44%.
For the compound `C[C@]12CC[C@@H]3c4ccc(O)cc4CC[C@H]3[C@@H]1CCC2=O` [Estrone], for the setting “Steroid Library, 50 μM steroid”, the “HSD17B13 Enzymatic Activity Percent Estradiol Control” value is recorded as 0.45%.
Consider `CC(C)OC(=O)CCC/C=C\C[C@@H]1[C@@H](/C=C/[C@@H](O)COc2cccc(C(F)(F)F)c2)[C@H](O)C[C@@H]1O` [Fluprostenol isopropyl ester], for which the “HSD17B13 Enzymatic Activity Relative Light Units” value under setting [1] worked out at 467040 RLU. In addition, the “HSD17B13 Enzymatic Activity Percent Estradiol Control” value under setting [2] is on record as 14.54%.
Consider `C[C@]12CCC(=O)C(O)=C1CC[C@@H]1[C@@H]2CC[C@]2(C)C(=O)CC[C@@H]12` [Formestane], for which the “HSD17B13 Enzymatic Activity Percent Estradiol Control” value (Steroid Library, 50 μM steroid) is given as 0.63%.
For the compound `C=CCc1ccc(O)c(-c2ccc(O)c(CC=C)c2)c1` [Honokiol], under “Steroid Library, 50 μM steroid”, the “HSD17B13 Enzymatic Activity Relative Light Units” value was determined as 52920 RLU and the “HSD17B13 Enzymatic Activity Percent Estradiol Control” value was −1.88%.
For the compound `CC(C)=CCC[C@]1(C)[C@@H](CC=C(C)C)C[C@@]2(CC=C(C)C)C(=O)[C@]1(C(=O)C(C)C)C(=O)C(CC=C(C)C)=C2O` [Hyperforin], the “HSD17B13 Enzymatic Activity Relative Light Units” value under setting [1] was 23920 RLU. Further, the “HSD17B13 Enzymatic Activity Percent Estradiol Control” value under setting [2] is reported as −22.74%.
As for `O=C(O)CCC/C=C\C[C@@H]1[C@@H](/C=C/[C@@H](O)COc2ccc(I)cc2)[C@H]2CC[C@@H]1O2` [I-BOP], under setting [1], the “HSD17B13 Enzymatic Activity Relative Light Units” value turned out to be 358960 RLU. Moreover, under setting [2], the “HSD17B13 Enzymatic Activity Percent Estradiol Control” value came out at 6.00%.
For `CC1(C)[C@@H]2C[C@H](NS(=O)(=O)c3ccc(I)cc3)[C@@H](C/C=C\CCCC(=O)O)[C@H]1C2` [I-SAP], the “HSD17B13 Enzymatic Activity Relative Light Units” value under setting [1] stood at 245520 RLU. The “HSD17B13 Enzymatic Activity Percent Estradiol Control” value under setting [2] is listed as −2.97%.
In the same order, the values of `CC#CCC(C)[C@H](O)/C=C/[C@@H]1[C@H]2C/C(=C/CCCC(=O)O)C[C@H]2C[C@H]1O` (stereo partly shown) [Iloprost] are 358880 RLU and 5.99%.
`CC(=O)N[C@@H](CSC(=O)[C@]1([C@@H](O)C(C)C)NC(=O)[C@H](C)[C@@H]1O)C(=O)O` [Lactacystin]: under setting [1], the “HSD17B13 Enzymatic Activity Relative Light Units” value was found to be 328520 RLU. Besides, under setting [2], the “HSD17B13 Enzymatic Activity Percent Estradiol Control” value is on record as 0.26%.
Regarding `CCCCCCCC\C=C/C=C/C=C/[C@@H]1O[C@H]1CCCC(=O)OC` [Leukotriene A3 methyl ester], the “HSD17B13 Enzymatic Activity Relative Light Units” value under setting [1] came out at 990560 RLU. Besides, the “HSD17B13 Enzymatic Activity Percent Estradiol Control” value under setting [2] worked out at 55.92%.
In the same order, the values of `CCCCC/C=C\C\C=C/C=C/C=C/[C@@H]1O[C@H]1CCCC(=O)OC` [Leukotriene A4 methyl ester] are 463120 RLU and 14.23%.
On to `CCCCCCCC[C@H](O)/C=C/C=C\C=C\[C@H](O)CCCC(=O)O` [Leukotriene B3], for which the “HSD17B13 Enzymatic Activity Relative Light Units” value under setting [1] was determined as 2077280 RLU. Besides, the “HSD17B13 Enzymatic Activity Percent Estradiol Control” value under setting [2] worked out at 141.82%.
